Reference: ChEMBL document CHEMBL3832055, “DailyMed|setid=e57a1fb3-1bf5-4562-982c-52a6f5fb36ed | HYDROCHLOROTHIAZIDE - hydrochlorothiazide tablet | Aphena Pharma Solutions - Tenness ee, LLC”

Test: Evaluation of the plasma half-life for Hydrochlorothiazide for at least 24 hours following administration of Hydrochlorothiazide
Assay type: ADME, organism-based
Details: human; dosed compound id 30, dosed compound name HYDROCHLOROTHIAZIDE, tissue Plasma

NS(=O)(=O)c1cc2c(cc1Cl)NCNS2(=O)=O [HYDROCHLOROTHIAZIDE]
half-life: 336 to 888 min
